The nature of data set [1]: cells. As to conditions: Mus musculus, BaF3.
Data set [2] can be described thus: cells. As to conditions: Mus musculus, BaF3. This is another data set of the same source.
A short description of data set [3]: cells. The conditions noted are these: Mus musculus, BaF3. The source holds these as a separate data set.
Data set [4] is described as follows: cells. As to conditions: Mus musculus, BaF3. The source holds these as a separate data set.
A short description of data set [5]: cells. The conditions noted are these: Mus musculus, BaF3. This is another data set of the same source.
Data set [6] is described as follows: cells. As to conditions: Mus musculus, BaF3. The source holds these as a separate data set.
Data set [7] can be described thus: cells. As to conditions: Mus musculus, BaF3. The source holds these as a separate data set.
Data set [8] in a line: cells. The conditions noted are these: Mus musculus, BaF3. The source holds these as a separate data set.
Data set [9] has as its target Protein kinase C theta type (Homo sapiens) (UniProt Q04759). In words: Inhibition of human PKCtheta at 10 uM.
Data set [10] concerns the target Serine/threonine-protein kinase Sgk1 (Homo sapiens) (UniProt O00141). In words: Inhibition of human SGK at 10 uM.
The target of data set [11] is Mitogen-activated protein kinase 9 (Homo sapiens) (UniProt P45984). In words: Inhibition of human JNK2alpha2 at 10 uM.
The target in data set [12] is Mitogen-activated protein kinase 1 (Homo sapiens) (UniProt P28482). The experiment in a line: Inhibition of human MAPK1 at 10 uM.
Data set [13] can be described thus: in vivo. As to conditions: BALB/c, mouse, iv, 5 mg/kg.
For data set [14], the target named is Aurora kinase A (Homo sapiens) (UniProt O14965). The experiment in a line: Inhibition of human Aurora A at 10 uM.
Data set [15] deals with Fibroblast growth factor receptor 3 (Homo sapiens) (UniProt P22607). The experiment in a line: Inhibition of human FGFR3 at 10 uM.
Data set [16] addresses Cytoplasmic tyrosine-protein kinase BMX (Homo sapiens) (UniProt P51813). In words: Inhibition of human Bmx at 10 uM.
Data set [17] concerns Mus musculus. The experiment in a line: Tlast in BALB/c mouse at 20 mg/kg, po. As to conditions: in vivo. More on the design: dose 20 mg/kg, route oral. Format: ADME, organism-based.
For data set [18], the target named is Serine/threonine-protein kinase PAK 2 (Homo sapiens) (UniProt Q13177). The experiment in a line: Inhibition of human PAK2 at 10 uM.
A short description of data set [19]: Tmax in BALB/c mouse at 5 mg/kg, iv. In kind it is ADME, organism-based. On the set-up: dose 5 mg/kg, route intravenous. As to conditions: in vivo.
The target of data set [20] is Mitogen-activated protein kinase 11 (Homo sapiens) (UniProt Q15759). In words: Inhibition of human SAPK2b at 10 uM.
In data set [21] the target is Dual specificity mitogen-activated protein kinase kinase 6 (Homo sapiens) (UniProt P52564). The experiment in a line: Inhibition of human MKK6 at 10 uM.
Data set [22] deals with Dual specificity mitogen-activated protein kinase kinase 1 (Homo sapiens) (UniProt Q02750). The experiment in a line: Inhibition of human MEK1 at 10 uM.
Data set [23] has as its target Inhibitor of nuclear factor kappa-B kinase subunit alpha (Homo sapiens) (UniProt O15111). The experiment in a line: Inhibition of human IKKalpha at 10 uM.
In data set [24] the target is Glycogen synthase kinase-3 (Homo sapiens) (UniProt P49840+P49841). In words: Inhibition of human GSK3ss at 10 uM. In kind it is protein assay.
The next data set has as its system COLO 205. In words: cells. As to conditions: Homo sapiens.
In data set [25] the target is Tyrosine-protein kinase receptor UFO (Homo sapiens) (UniProt P30530). In words: Inhibition of human Axl at 10 uM.
Data set [26] concerns the target Protein kinase C alpha type (Homo sapiens) (UniProt P17252). In words: Inhibition of human PKCalpha at 10 uM.
For data set [27], the target named is Tyrosine-protein kinase CSK (Homo sapiens) (UniProt P41240). The experiment in a line: Inhibition of human CSK at 10 uM.
The target of data set [28] is Platelet-derived growth factor receptor alpha (Homo sapiens) (UniProt P16234). The experiment in a line: Inhibition of human PDGFRalpha at 10 uM.
For data set [29], the species on record is Mus musculus. As to conditions: in vivo, po, 20 mg/kg.
The target of data set [30] is Tyrosine-protein kinase ZAP-70 (Homo sapiens) (UniProt P43403). In words: Inhibition of human ZAP-70 at 10 uM.
In data set [31] the target is Ribosomal protein S6 kinase alpha-1 (Homo sapiens) (UniProt Q15418). In words: Inhibition of human Rsk1 at 10 uM.
Data set [32] addresses Casein kinase II (Homo sapiens) (UniProt P67870+P68400+P19784). The experiment in a line: Inhibition of human CK2 at 10 uM. In kind it is protein-complex assay.
The species entered for the next data set is Homo sapiens. The conditions noted are these: 10 uM.
Data set [33] deals with Insulin receptor (Homo sapiens) (UniProt P06213). In words: Inhibition of human IR at 10 uM.
In data set [34] the target is Serine/threonine-protein kinase Chk2 (Homo sapiens) (UniProt O96017). In words: Inhibition of human CHK2 at 10 uM.
Data set [35] has as its target Tyrosine-protein kinase SYK (Homo sapiens) (UniProt P43405). In words: Inhibition of human Syk at 10 uM.
Data set [36] deals with 3-phosphoinositide-dependent protein kinase 1 (Homo sapiens) (UniProt O15530). The experiment in a line: Inhibition of human PDK1 at 10 uM.
Data set [37] can be described thus: cells. The conditions noted are these: Homo sapiens, U-87 MG.
The target of data set [38] is Rho-associated protein kinase 2 (Homo sapiens) (UniProt O75116). In words: Inhibition of human ROCK-2 at 10 uM.
In another data set the test system is SW-620. In words: cells. As to conditions: Homo sapiens.
Data set [39] concerns Mus musculus. In words: Tlast in BALB/c mouse at 5 mg/kg, iv. On the set-up: dose 5 mg/kg, route intravenous. Format: ADME, organism-based. The conditions noted are these: in vivo.
Data set [40] addresses Mitogen-activated protein kinase 14 (Homo sapiens) (UniProt Q16539). In words: Inhibition of human SAPK2a at 10 uM.
For data set [41], the target named is RAC-alpha serine/threonine-protein kinase (Homo sapiens) (UniProt P31749). In words: Inhibition of human PKBalpha at 10 uM.
Data set [42] is described as follows: cells. As to conditions: Homo sapiens, HEK-293T.
The target of data set [43] is Calcium/calmodulin-dependent protein kinase type IV (Homo sapiens) (UniProt Q16566). The experiment in a line: Inhibition of human CaMK4 at 10 uM.
Data set [44] addresses Ribosomal protein S6 kinase beta-1 (Homo sapiens) (UniProt P23443). The experiment in a line: Inhibition of human p70S6K at 10 uM.
A short description of data set [45]: in vivo. The conditions noted are these: BALB/c, mouse, iv, 5 mg/kg. This is another data set of the same source.
The target in data set [46] is MAP kinase-activated protein kinase 2 (Homo sapiens) (UniProt P49137). The experiment in a line: Inhibition of human MAPKAP-K2 at 10 uM.
For data set [47], the target named is Tyrosine-protein kinase Lck (Homo sapiens) (UniProt P06239). In words: Inhibition of human Lck at 10 uM.
In data set [48] the target is BDNF/NT-3 growth factors receptor (Homo sapiens) (UniProt Q16620). The experiment in a line: Inhibition of human TrkB at 10 uM.
Data set [49] concerns the target Cyclin-dependent kinase 1/cyclin B1 (Homo sapiens) (UniProt P06493+P14635). In words: Inhibition of human CDK1/cyclinB at 10 uM. Format: protein-complex assay.
Data set [50] has as its target Serine/threonine-protein kinase D2 (Homo sapiens) (UniProt Q9BZL6). The experiment in a line: Inhibition of human PKD2 at 10 uM.
The species named for data set [51] is Mus musculus. The conditions noted are these: 10 uM.
Data set [52] addresses Receptor-type tyrosine-protein kinase FLT3 (Homo sapiens) (UniProt P36888). In words: Inhibition of human Flt3 at 10 uM.
Data set [53] concerns the target RAF proto-oncogene serine/threonine-protein kinase (Homo sapiens) (UniProt P04049). In words: Inhibition of human c-RAF at 10 uM.
Data set [54] addresses Tyrosine-protein kinase Fes/Fps (Homo sapiens) (UniProt P07332). The experiment in a line: Inhibition of human Fes at 10 uM.
Data set [55] addresses Mitogen-activated protein kinase 8 (Homo sapiens) (UniProt P45983). In words: Inhibition of human JNK1alpha1 at 10 uM.
In data set [56] the target is Mitogen-activated protein kinase 12 (Homo sapiens) (UniProt P53778). In words: Inhibition of human SAPK3 at 10 uM.
Data set [57] in a line: in vivo. The conditions noted are these: BALB/c, mouse, iv, 5 mg/kg. This is another data set of the same source.

The record followed here is ChEMBL document CHEMBL1212824, “A type-II kinase inhibitor capable of inhibiting the T315I "gatekeeper" mutant of Bcr-Abl” (J Med Chem, 2010).

Structures are written as SMILES.

RAF proto-oncogene serine/threonine-protein kinase (Homo sapiens), sequence (P04049 whole entry): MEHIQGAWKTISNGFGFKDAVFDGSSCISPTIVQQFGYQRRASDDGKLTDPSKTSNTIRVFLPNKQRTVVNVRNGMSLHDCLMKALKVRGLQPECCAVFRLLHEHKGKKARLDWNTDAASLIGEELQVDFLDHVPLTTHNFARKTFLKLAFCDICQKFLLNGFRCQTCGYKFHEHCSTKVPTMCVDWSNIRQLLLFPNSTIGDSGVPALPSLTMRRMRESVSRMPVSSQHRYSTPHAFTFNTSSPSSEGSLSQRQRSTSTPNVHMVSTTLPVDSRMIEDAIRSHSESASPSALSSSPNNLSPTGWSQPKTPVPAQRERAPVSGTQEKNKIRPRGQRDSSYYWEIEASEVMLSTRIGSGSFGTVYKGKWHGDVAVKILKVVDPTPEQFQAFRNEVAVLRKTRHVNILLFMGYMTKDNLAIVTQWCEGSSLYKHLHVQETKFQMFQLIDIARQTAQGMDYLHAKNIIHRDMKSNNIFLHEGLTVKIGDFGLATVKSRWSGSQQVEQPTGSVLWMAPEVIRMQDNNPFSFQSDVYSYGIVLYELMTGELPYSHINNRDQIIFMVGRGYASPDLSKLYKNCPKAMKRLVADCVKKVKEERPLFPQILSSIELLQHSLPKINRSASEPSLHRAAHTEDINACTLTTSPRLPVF
3-phosphoinositide-dependent protein kinase 1 (Homo sapiens), sequence (O15530 whole entry, looked up): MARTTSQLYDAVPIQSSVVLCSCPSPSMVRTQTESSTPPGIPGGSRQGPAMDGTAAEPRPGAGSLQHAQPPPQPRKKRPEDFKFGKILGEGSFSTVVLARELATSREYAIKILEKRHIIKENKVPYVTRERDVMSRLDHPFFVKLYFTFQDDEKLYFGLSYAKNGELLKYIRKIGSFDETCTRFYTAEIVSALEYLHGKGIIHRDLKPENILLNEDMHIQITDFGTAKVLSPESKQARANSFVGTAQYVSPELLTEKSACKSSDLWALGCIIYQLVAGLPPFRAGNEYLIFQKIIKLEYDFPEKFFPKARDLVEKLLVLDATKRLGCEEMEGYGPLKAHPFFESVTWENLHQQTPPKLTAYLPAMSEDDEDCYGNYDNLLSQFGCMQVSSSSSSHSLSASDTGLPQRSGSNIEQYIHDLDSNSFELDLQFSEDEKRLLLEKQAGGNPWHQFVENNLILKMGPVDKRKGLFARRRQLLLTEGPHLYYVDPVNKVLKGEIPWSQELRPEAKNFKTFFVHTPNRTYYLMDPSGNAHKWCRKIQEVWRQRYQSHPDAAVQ
Tyrosine-protein kinase Lck (Homo sapiens), sequence (P06239 2-509 limits assumed): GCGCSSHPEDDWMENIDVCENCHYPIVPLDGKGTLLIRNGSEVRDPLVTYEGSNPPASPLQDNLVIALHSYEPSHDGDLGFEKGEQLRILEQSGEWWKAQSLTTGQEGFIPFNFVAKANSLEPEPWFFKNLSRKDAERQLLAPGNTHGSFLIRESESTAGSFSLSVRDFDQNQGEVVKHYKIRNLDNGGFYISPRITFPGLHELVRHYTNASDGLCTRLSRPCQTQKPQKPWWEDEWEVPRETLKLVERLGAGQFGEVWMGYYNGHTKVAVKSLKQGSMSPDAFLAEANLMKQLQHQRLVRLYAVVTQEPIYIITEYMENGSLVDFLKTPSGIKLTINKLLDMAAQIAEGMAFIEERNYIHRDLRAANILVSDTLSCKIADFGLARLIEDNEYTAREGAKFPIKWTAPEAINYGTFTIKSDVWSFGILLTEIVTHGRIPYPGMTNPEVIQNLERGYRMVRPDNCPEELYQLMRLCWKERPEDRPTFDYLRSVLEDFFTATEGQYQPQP
Calcium/calmodulin-dependent protein kinase type IV (Homo sapiens), sequence (Q16566 whole entry): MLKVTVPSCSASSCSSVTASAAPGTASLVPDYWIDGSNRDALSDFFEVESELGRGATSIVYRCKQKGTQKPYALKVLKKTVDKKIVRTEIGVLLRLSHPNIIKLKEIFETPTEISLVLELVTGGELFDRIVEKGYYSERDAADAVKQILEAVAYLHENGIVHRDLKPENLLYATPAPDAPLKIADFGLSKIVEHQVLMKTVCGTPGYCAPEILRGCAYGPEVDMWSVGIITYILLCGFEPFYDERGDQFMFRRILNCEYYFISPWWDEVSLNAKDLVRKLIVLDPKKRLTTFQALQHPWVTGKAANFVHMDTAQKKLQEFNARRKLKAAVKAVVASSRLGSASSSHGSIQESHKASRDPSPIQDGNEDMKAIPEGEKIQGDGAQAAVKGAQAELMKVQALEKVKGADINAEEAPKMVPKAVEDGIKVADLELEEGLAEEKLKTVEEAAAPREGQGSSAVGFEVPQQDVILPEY
Ribosomal protein S6 kinase beta-1 (Homo sapiens), sequence (P23443 whole entry, looked up): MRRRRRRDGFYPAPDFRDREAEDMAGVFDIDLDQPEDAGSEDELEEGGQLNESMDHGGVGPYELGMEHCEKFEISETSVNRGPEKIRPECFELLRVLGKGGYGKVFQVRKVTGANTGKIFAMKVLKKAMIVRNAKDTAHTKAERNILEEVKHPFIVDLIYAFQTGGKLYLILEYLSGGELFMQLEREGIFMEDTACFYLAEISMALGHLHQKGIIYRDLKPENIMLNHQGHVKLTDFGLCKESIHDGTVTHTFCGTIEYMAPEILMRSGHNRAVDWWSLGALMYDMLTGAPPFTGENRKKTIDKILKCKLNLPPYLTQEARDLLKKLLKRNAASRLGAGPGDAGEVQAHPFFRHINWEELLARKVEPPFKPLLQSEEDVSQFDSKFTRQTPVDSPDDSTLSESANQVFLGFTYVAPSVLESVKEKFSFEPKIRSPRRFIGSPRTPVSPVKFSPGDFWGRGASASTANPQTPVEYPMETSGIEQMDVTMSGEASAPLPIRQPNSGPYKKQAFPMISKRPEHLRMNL
Serine/threonine-protein kinase Chk2 (Homo sapiens), sequence (O96017 whole entry): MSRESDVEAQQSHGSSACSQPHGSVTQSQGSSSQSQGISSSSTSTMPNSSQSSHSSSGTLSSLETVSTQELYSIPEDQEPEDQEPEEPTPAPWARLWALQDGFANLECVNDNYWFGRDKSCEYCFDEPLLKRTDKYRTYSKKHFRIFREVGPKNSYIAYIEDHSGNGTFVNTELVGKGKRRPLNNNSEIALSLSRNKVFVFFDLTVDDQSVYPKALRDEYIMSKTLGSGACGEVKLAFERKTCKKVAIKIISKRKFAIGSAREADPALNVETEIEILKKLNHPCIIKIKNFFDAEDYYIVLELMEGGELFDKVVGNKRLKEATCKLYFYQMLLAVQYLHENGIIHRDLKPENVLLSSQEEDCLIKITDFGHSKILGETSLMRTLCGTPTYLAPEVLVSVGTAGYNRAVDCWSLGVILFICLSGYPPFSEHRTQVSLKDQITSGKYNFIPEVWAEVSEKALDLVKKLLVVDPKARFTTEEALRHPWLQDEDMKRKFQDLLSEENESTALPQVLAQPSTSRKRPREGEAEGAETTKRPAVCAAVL
Tyrosine-protein kinase receptor UFO (Homo sapiens), sequence (P30530 whole entry): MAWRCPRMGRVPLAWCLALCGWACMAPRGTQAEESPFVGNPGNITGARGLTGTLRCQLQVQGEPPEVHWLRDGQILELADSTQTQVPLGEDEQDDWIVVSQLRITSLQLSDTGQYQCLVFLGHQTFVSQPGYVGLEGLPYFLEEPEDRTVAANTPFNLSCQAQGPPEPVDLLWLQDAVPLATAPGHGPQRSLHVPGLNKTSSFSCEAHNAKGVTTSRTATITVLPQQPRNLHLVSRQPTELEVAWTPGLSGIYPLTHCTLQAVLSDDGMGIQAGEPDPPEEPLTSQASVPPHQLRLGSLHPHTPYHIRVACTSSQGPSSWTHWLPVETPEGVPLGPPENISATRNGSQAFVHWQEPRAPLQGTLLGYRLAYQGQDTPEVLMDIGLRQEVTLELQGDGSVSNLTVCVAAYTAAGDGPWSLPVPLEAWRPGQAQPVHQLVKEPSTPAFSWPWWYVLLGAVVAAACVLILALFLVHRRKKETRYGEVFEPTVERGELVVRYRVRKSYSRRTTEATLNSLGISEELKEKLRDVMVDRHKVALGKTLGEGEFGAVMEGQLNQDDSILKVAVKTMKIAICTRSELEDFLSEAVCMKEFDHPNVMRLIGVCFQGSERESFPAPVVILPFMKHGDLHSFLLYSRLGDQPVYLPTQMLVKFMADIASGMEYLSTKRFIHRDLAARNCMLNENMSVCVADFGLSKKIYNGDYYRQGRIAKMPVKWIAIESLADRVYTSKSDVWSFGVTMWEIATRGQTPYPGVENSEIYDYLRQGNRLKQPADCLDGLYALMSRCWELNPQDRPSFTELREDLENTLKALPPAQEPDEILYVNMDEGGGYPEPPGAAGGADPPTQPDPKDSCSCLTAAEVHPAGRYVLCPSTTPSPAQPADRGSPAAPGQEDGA
Mitogen-activated protein kinase 12 (Homo sapiens), sequence (P53778 whole entry): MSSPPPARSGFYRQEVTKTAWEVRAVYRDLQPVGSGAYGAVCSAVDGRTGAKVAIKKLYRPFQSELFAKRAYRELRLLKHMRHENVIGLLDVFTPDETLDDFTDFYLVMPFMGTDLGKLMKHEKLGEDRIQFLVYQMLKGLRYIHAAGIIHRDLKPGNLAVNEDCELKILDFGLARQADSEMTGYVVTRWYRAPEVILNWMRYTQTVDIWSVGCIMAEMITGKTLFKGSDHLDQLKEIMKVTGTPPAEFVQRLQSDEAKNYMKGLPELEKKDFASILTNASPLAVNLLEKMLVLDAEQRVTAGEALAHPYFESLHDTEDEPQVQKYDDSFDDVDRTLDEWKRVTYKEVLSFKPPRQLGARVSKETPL
Serine/threonine-protein kinase Sgk1 (Homo sapiens), sequence (O00141 whole entry): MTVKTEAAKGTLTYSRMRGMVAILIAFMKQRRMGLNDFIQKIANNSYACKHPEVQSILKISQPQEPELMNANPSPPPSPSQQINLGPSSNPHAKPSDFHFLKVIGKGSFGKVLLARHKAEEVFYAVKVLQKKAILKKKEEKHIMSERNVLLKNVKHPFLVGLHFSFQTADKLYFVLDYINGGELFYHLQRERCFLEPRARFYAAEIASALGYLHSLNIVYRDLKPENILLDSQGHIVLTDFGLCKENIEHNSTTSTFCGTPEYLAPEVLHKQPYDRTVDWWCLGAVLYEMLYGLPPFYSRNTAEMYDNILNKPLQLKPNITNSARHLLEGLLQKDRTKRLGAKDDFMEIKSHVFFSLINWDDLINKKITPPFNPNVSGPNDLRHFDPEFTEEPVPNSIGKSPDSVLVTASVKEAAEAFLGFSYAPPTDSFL

Usually IC50 stands for the concentration that inhibits the measured activity by half. A high value points to lower potency. For `Cc1ccc(NC(=O)c2cccc(C(F)(F)F)c2)cc1N1Cc2cnc(Nc3ccccc3)nc2N(C)C1=O`, the IC50 in the data set “cells [1]” is less than 5 nM; in the data set “cells [2]” it was 19 nM; in the data set “cells [3]” it was less than 5 nM; in the data set “cells [4]”, less than 5 nM.
Regarding `Cc1ccc(NC(=O)c2cccc(C(F)(F)F)c2)cc1N1Cc2cnc(N)nc2N(C)C1=O`, the half-maximal inhibitory concentration (IC50) in “cells [5]”, in “cells [6]”, in “cells [1]”, in the data set “cells [2]”, in “cells [3]” and in the data set “cells [7]” was less than 5 nM throughout. The IC50 in “cells [4]” is less than 5 nM.
As for `CNc1ncc2c(n1)N(C)C(=O)N(c1cc(NC(=O)c3cc(-n4cnc(C)c4)cc(C(F)(F)F)c3)ccc1C)C2`, the IC50 is less than 5 nM in the data set “cells [5]”; 13 nM in the data set “cells [6]”; less than 5 nM in “cells [1]”; 16 nM in the data set “cells [2]”; less than 5 nM in the data set “cells [8]”; less than 5 nM in “cells [3]”. The molecule further registered an IC50 in “cells [4]” of 15 nM.
What is called inhibition is the relative decrease from the control value, in per cent. By Vd is commonly meant the apparent volume that relates the amount in the body to the concentration in plasma or blood. A high value points to extensive tissue distribution. For orientation: Tmax means the time at which the peak concentration occurs. As a reminder, the Cmax is the peak of the concentration-time curve. As a reminder, the half-life is the time needed for the level to fall by half in the phase considered. A high value points to slow decline. On to `Cc1ccc(Nc2ncc3c(n2)N(C)C(=O)N(c2cc(NC(=O)c4cccc(C(F)(F)F)c4)ccc2C)C3)cn1`, for which the inhibition worked out at 22% in data set [9]; 0% in [10]; 99% in data set [11]; 68% in [12]; 31% in [14]; 100% in data set [15]. Also, the inhibition came to 98% in data set [16]; 45% in data set [18]; 98% in data set [20]; 100% in [21]; 58% in data set [22]; 69% in data set [23]. Further, the inhibition in data set [24] is 59%; in [25] it was 69%; in data set [26], 51%; in data set [27], 100%; in [28], 62%; in data set [30] it was 6%. Moreover, the inhibition in data set [31] stood at 95%; in data set [32], 6%; in the data set listed under Homo sapiens, 49%; in [33], 89%; in [34], 12%; in [35] it was 98%. Further, the inhibition in data set [36] stood at 0%; in data set [38] it was 2%; in data set [40] it was 95%; in data set [41], 7%; in data set [43], 0%; in data set [44], 92%. For the same molecule, the inhibition in data set [46] was found to be 0%; in data set [47] it was 99%; in data set [48] it was 100%; in data set [49], 3%; in [50], 77%; in the data set listed under Mus musculus [51], 98%. Also, the inhibition was found to be 69% in data set [52]; 100% in data set [53]; 98% in data set [54]; 97% in data set [55]; 35% in data set [56]. For the same molecule, the Vd in “in vivo [13]” was found to be 1.12 L/kg. Further, the Tlast in the data set on Mus musculus [17] and in the data set with Mus musculus [39] was 24 h in each case. In addition, the Tmax in data set [19] was found to be 1.8 min. For the same molecule, the IC50 is 5 nM in the data set with COLO 205, 5960 nM in the data set “cells [37]”, 1 nM in the data set with SW-620 and greater than 10000 nM in the data set “cells [42]”. Moreover, the figures for the Cmax in the data set filed under Mus musculus [29] and in the data set “in vivo [45]” were 3.62 µM and 11.7 µM, respectively. In addition, the half-life in “in vivo [57]” is 3.8 h.
